Columns and labels:
TU3A = TU3A mRNA expression in prostate cancer cell lines after 5-Aza-CdR treatment (TaqMan real-time PCR); settings: 6 μM 5-Aza-CdR for 6 days
KIAA1210 = KIAA1210 mRNA expression in prostate cancer cell lines after 5-Aza-CdR treatment (TaqMan real-time PCR); settings: LAPC4 and LNCaP cells; 6 μM 5-Aza-CdR for 6 days
PRIMA1 = PRIMA1 mRNA expression in prostate cancer cell lines after 5-Aza-CdR treatment (TaqMan real-time PCR); settings: 6 μM 5-Aza-CdR for 6 days
FLJ14084 = FLJ14084 mRNA expression in prostate cancer cell lines after 5-Aza-CdR treatment (TaqMan real-time PCR); settings: all three prostate cancer cells (LAPC4, LNCaP, PC3); 6 μM 5-Aza-CdR for 6 days
SVIL = SVIL mRNA expression in prostate cancer cell lines after 5-Aza-CdR treatment (TaqMan real-time PCR); settings: 6 μM 5-Aza-CdR for 6 days
[1] = tested on: ZNF185 5′ CpG dinucleotides of genomic DNA; assay: Methylation specific PCR (MSP) of ZNF185 DNA in prostate cell lines with or without 5-Aza-CdR; type: cell-based, human; settings: prostate cancer cell lines with 5-Aza-CdR treatment versus without
Procedure: DNA isolation and Bisulfite modification. Genomic DNA was obtained from metastatic, primary, matched benign prostatic tissues and the above mentioned prostate cancer cell lines treated with 5-Aza-CdR, using Wizard® genomic DNA purification kit according to the manufacturer's protocol (Promega, Madison, Wis.). Genomic DNA (100 ng) was modified by sodium bisulfite treatment by converting unmethylated, but not methylated, cytosines to uracil as described previously (Herman et al., Proc. Natl. Acad. Sci. USA 93:9821-9826, 1996). DNA samples were then purified using the spin columns (Qiagen), and eluted in 50 μl of distilled water. Modification was completed by treatment with NaOH (0.3 M final concentration) for 5 min at room temperature, followed by ethanol precipitation. […]
Methylation Specific PCR (MSP). DNA methylation patterns within the gene were determined by chemical modification of unmethylated cytosine to uracil and subsequent PCR as described previously (Esteller et al., Cancer Res. 61:3225-3229, 2001), using primers specific for either methylated or the modified unmethylated sequences.
Two sets of primers were designed corresponding to the genomic positions around 210 and 335. […] One (1) μl of the PCR product was directly loaded onto DNA 500 lab chip and analyzed on Agilent 2100 Bioanalyzer (Agilent Technologies, Palo Alto, Calif.).

ZNF185 = ZNF185 mRNA expression in prostate cancer cell lines after 5-Aza-CdR treatment (Taqman real-time PCR); type: cell-based, human; settings: LAPC4, LNCaP and PC3 prostate cancer cell lines; 6 μM 5-Aza-CdR for 6 days; versus untreated cells

Nc1ncn([C@H]2C[C@H](O)[C@@H](CO)O2)c(=O)n1 [5-Aza-CdR, 5-aza-2′-deoxycytidine]
TU3A expression levels (TU3A; LAPC4 and PC3 cells): not in LAPC4 and PC3 cells
TU3A expression levels (TU3A; LNCaP cells): significantly increased
KIAA1210 mRNA levels (KIAA1210): increased
expression of PRIMA1 mRNA levels (PRIMA1; LACaP cells (so in the source)): not in LACaP
expression of PRIMA1 mRNA levels (PRIMA1; LAPC4 and PC3 cells): significant increase
expression of FLJ14084 mRNA levels (FLJ14084): significant increase
expression of SVIL mRNA levels (SVIL; LACaP cells (so in the source)): not in LACaP
expression of SVIL mRNA levels (SVIL; LAPC4 and PC3 cells): significant increase
methylated and unmethylated ZNF185 bands by MSP [1]: reduction of the methylated band and increase of the unmethylated band
increase in mRNA levels of ZNF185 (ZNF185): ~2.0 fold
